Measurements: PubChem BioAssay AID248 (DTP/NCI, 2004)
“And” between values parts separate entries of the source, which are not always exact repeats. Equal entries are not always repeated. Toxic doses and inconclusive results are not listed. Cut-off read from the data, not from the text of the source: active = T/C of 150% or more; inactive = T/C below 125%.

Test system: L1210 leukemia ip in BDF1 mice, survival T/C
Test: NCI In Vivo Anticancer Drug Screen. Data for tumor model L1210 Leukemia (intraperitoneal) in B6D2F1 (BDF1) mice
Settings: endpoint: mean survival time, higher = longer survival
In short: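 Tumor was transplanted into mice, which were then dosed with test compound or vehicle alone. Survival was recorded for each group, and the treated figure was expressed relative to the control figure.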

[1] = dose: 50.0 mg/kg/injection, schedule: Q01DX001 (ip), vehicle: carboxymethylcellulose (CMC)
[2] = dose: 100.0 mg/kg/injection, schedule: Q01DX001 (ip), vehicle: carboxymethylcellulose (CMC)
[3] = dose: 200.0 mg/kg/injection, schedule: Q01DX001 (ip), vehicle: carboxymethylcellulose (CMC)
[4] = dose: 400.0 mg/kg/injection, schedule: Q01DX001 (ip), vehicle: carboxymethylcellulose (CMC)
[5] = dose: 100.0 mg/kg/injection, schedule: Q04DX002 (ip), vehicle: Klucel (hydroxypropylcellulose) (HPC)
[6] = dose: 200.0 mg/kg/injection, schedule: Q04DX002 (ip), vehicle: Klucel (hydroxypropylcellulose) (HPC)
[7] = dose: 400.0 mg/kg/injection, schedule: Q04DX002 (ip), vehicle: Klucel (hydroxypropylcellulose) (HPC)
[8] = dose: 25.0 mg/kg/injection, schedule: Q01DX009 (ip), vehicle: saline with Tween-80
[9] = dose: 50.0 mg/kg/injection, schedule: Q01DX009 (ip), vehicle: saline with Tween-80
[10] = dose: 100.0 mg/kg/injection, schedule: Q01DX009 (ip), vehicle: saline with Tween-80
[11] = dose: 100.0 mg/kg/injection, schedule: Q04DX003 (ip), vehicle: saline with Tween-80
[12] = dose: 100.0 mg/kg/injection, schedule: Q01DX001 (ip), vehicle: saline
[13] = dose: 200.0 mg/kg/injection, schedule: Q01DX001 (ip), vehicle: saline
[14] = dose: 400.0 mg/kg/injection, schedule: Q01DX001 (ip), vehicle: saline
[15] = dose: 100.0 mg/kg/injection, schedule: Q04DX003 (ip), vehicle: saline
[16] = dose: 200.0 mg/kg/injection, schedule: Q04DX003 (ip), vehicle: saline
[17] = dose: 100.0 mg/kg/injection, schedule: Q04DX002 (ip), vehicle: saline with Tween-80
[18] = dose: 200.0 mg/kg/injection, schedule: Q04DX002 (ip), vehicle: saline with Tween-80
[19] = dose: 400.0 mg/kg/injection, schedule: Q04DX002 (ip), vehicle: saline with Tween-80

Measured: T/C

CCOC(=O)C(C)(N)CCOCc1ccccc1 (stereo not given)
inactive: [1] 100 % of control | [2] 102 % of control | [3] 100 % of control | [4] 104 % of control

CC(C)CN1C(c2ccccc2)=CN(Cc2ccccc2)C=C1c1ccccc1
inactive: [5] 100 % of control | [6] 120 % of control | [7] 113 % of control

CCCCCCCCCCCCN=C(N)N/C(N)=N/S(=O)(=O)c1ccc(OCCC)cc1
inactive: [5] 106 % of control | [6] 100 % of control | [7] 95 % of control

O=P(CCl)(CCl)CCl
inactive: [8] 100 % of control | [9] 92 % of control | [10] 88 % of control and 92 % of control

c1ccc(CC2NCCc3ccccc32)cc1 (stereo not given)
inactive: dose: 25.0 mg/kg/injection, schedule: Q04DX003 (ip), vehicle: acetone 102 % of control | dose: 25.0 mg/kg/injection, schedule: Q04DX003 (ip), vehicle: saline with Tween-80 99 % of control | dose: 50.0 mg/kg/injection, schedule: Q04DX003 (ip), vehicle: acetone 102 % of control | dose: 50.0 mg/kg/injection, schedule: Q04DX003 (ip), vehicle: saline with Tween-80 94 % of control | dose: 100.0 mg/kg/injection, schedule: Q01DX001 (ip), vehicle: acetone 89 % of control | dose: 100.0 mg/kg/injection, schedule: Q04DX003 (ip), vehicle: acetone 91 % of control | [11] 102 % of control

CC(C)c1ccccc1OS(=O)(=O)c1c(F)c(F)c(F)c(F)c1F
inactive: dose: 6.25 mg/kg/injection, schedule: Q01DX001 (ip), vehicle: Klucel (hydroxypropylcellulose) (HPC) 103 % of control | dose: 6.25 mg/kg/injection, schedule: Q01DX009 (ip), vehicle: saline with Tween-80 108 % of control | dose: 12.5 mg/kg/injection, schedule: Q01DX001 (ip), vehicle: Klucel (hydroxypropylcellulose) (HPC) 97 % of control | dose: 12.5 mg/kg/injection, schedule: Q01DX009 (ip), vehicle: saline with Tween-80 101 % of control | dose: 25.0 mg/kg/injection, schedule: Q01DX001 (ip), vehicle: Klucel (hydroxypropylcellulose) (HPC) 101 % of control | [8] 103 % of control

CCCCCCCCCCC1CCC2C(C1)CC1C3CCCCC3CC21 (stereo not given)
inactive: [12] 97 % of control | [13] 97 % of control | [14] 96 % of control

NC(=O)CCSCCC(N)=O
inactive: dose: 100.0 mg/kg/injection, schedule: Q01DX009 (ip), vehicle: saline 114 % of control | dose: 200.0 mg/kg/injection, schedule: Q01DX009 (ip), vehicle: saline 118 % of control | dose: 400.0 mg/kg/injection, schedule: Q01DX009 (ip), vehicle: saline 111 % of control

CCOC(=N)c1ccc(P(=O)(O)O)cc1
inactive: dose: 75.0 mg/kg/injection, schedule: Q01DX001 (ip), vehicle: saline 97 % of control | dose: 150.0 mg/kg/injection, schedule: Q01DX001 (ip), vehicle: saline 96 % of control | dose: 300.0 mg/kg/injection, schedule: Q01DX001 (ip), vehicle: saline 102 % of control

CN(C)CC1CCCCN1 (stereo not given)
inactive: [15] 93 % of control | [16] 97 % of control

CC1CNC(=O)CC(C)O1 (stereo not given)
inactive: [15] 108 % of control | [16] 110 % of control | dose: 400.0 mg/kg/injection, schedule: Q04DX003 (ip), vehicle: saline 104 % of control

O=C(Nc1cccc(Cl)c1)C(Br)C(Br)c1ccccc1 (stereo not given)
inactive: dose: 100.0 mg/kg/injection, schedule: Q01DX009 (ip), vehicle: Klucel (hydroxypropylcellulose) (HPC) 102 % of control | dose: 200.0 mg/kg/injection, schedule: Q01DX009 (ip), vehicle: Klucel (hydroxypropylcellulose) (HPC) 103 % of control | dose: 400.0 mg/kg/injection, schedule: Q01DX009 (ip), vehicle: Klucel (hydroxypropylcellulose) (HPC) 100 % of control

Brc1cccc[n+]1-c1ccc2cc(-[n+]3ccccc3Br)ccc2c1
inactive: dose: 9.38 mg/kg/injection, schedule: Q01DX001 (ip), vehicle: other 100 % of control

C=C(Br)CN=C=S
inactive: dose: 12.5 mg/kg/injection, schedule: Q01DX009 (ip), vehicle: saline 96 % of control | dose: 25.0 mg/kg/injection, schedule: Q01DX009 (ip), vehicle: saline 104 % of control | dose: 50.0 mg/kg/injection, schedule: Q01DX009 (ip), vehicle: saline 102 % of control

Cc1ccc(C(=O)CCCCCC(=O)c2ccc(C)cc2O)c(O)c1
inactive: dose: 100.0 mg/kg/injection, schedule: Q01DX001 (ip), vehicle: Klucel (hydroxypropylcellulose) (HPC) 98 % of control | dose: 200.0 mg/kg/injection, schedule: Q01DX001 (ip), vehicle: Klucel (hydroxypropylcellulose) (HPC) 98 % of control | dose: 400.0 mg/kg/injection, schedule: Q01DX001 (ip), vehicle: Klucel (hydroxypropylcellulose) (HPC) 95 % of control

Oc1ccc(Br)cc1C=Nc1ccccc1
inactive: [17] 96 % of control | [18] 104 % of control | [19] 100 % of control

Cc1cc(N(CCCl)CCCl)ccc1C=Nc1ccc(-c2csc(-c3ccccc3)n2)cc1
inactive: [1] 103 % of control | [2] 94 % of control | [3] 97 % of control | [4] 100 % of control

C(=C1\CCc2cc3ccccc3nc21)/c1ccccc1
inactive: [9] 98 % of control | [10] 95 % of control | dose: 200.0 mg/kg/injection, schedule: Q01DX009 (ip), vehicle: saline with Tween-80 88 % of control

CCN(CC)CCN(C(=O)C(O)(c1ccccc1)c1ccccc1)C(C)C
inactive: dose: 100.0 mg/kg/injection, schedule: Q04DX002 (ip), vehicle: saline 101 % of control | dose: 200.0 mg/kg/injection, schedule: Q04DX002 (ip), vehicle: saline 108 % of control

O=C(O)C1C2CC3CC(C2)CC1C3 (stereo not given)
inactive: [5] 105 % of control | [6] 94 % of control and 110 % of control | [7] 113 % of control | dose: 600.0 mg/kg/injection, schedule: Q04DX002 (ip), vehicle: Klucel (hydroxypropylcellulose) (HPC) 94 % of control

O=C1NC(C(=O)O)CC1O (stereo not given)
inactive: dose: 50.0 mg/kg/injection, schedule: Q01DX001 (ip), vehicle: saline 100 % of control | [12] 95 % of control and 97 % of control | [13] 98 % of control and 88 % of control | [14] 97 % of control

Cc1nc2nc(=S)[nH]c(N)c2nc1C
inactive: dose: 16.0 mg/kg/injection, schedule: Q01DX Z (ip), vehicle: methylcellulose (MC) 86 % of control | dose: 31.0 mg/kg/injection, schedule: Q01DX Z (ip), vehicle: methylcellulose (MC) 91 % of control | dose: 62.0 mg/kg/injection, schedule: Q01DX Z (ip), vehicle: methylcellulose (MC) 88 % of control | dose: 125.0 mg/kg/injection, schedule: Q01DX Z (ip), vehicle: methylcellulose (MC) 95 % of control

OCC(O)COCc1ccccc1 (stereo not given)
inactive: [11] 109 % of control | dose: 200.0 mg/kg/injection, schedule: Q04DX003 (ip), vehicle: saline with Tween-80 104 % of control | dose: 400.0 mg/kg/injection, schedule: Q04DX003 (ip), vehicle: saline with Tween-80 106 % of control

Cc1ccc(SP(=O)(Sc2ccc(C)cc2)Sc2ccc(C)cc2)cc1
inactive: [17] 97 % of control | [18] 97 % of control | [19] 97 % of control
